{"source": "patent US20080287507A1", "about": "“Nicotine containing toiletry waters” (priority 2007, published 2008)", "origin": "cited, not measured here", "key": {"[1]": {"conditions": "smoking a cigarette"}}, "data": [{"smiles": "CN1CCCC1c1cccnc1", "note": "(centres unmarked) [Nicotine, 3-(1-methyl-2-pyrrolidinyl)-pyridine]", "values": [{"measurement": "time for nicotine to reach the brain after inhalation", "setting": "[1]", "value": "around ten"}, {"measurement": "single dose that may kill an adult", "value": "Approximately 40 milligrams"}]}]}
